Assay results reported in patent US20240067651A1 (Biohaven Therapeutics Ltd., priority 2019, published 2024).

Legend:
[1] = Stability in Simulated Intestinal Fluid (SIF); type: in vitro ADME; parameters: key: % parent compound remaining relative to 0-minute sample
Outline: (§1)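 Compound at 2 μg/mL final was incubated at 37 °C with shaking in SGF with pepsin (pH 1.2) or SIF with pancreatin (pH 6.8), sampled from 0 to 60 min. After acetonitrile precipitation, LC-MS/MS gave % parent remaining vs 0 min; half-life came from ln(% remaining) vs time.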

Caco-2 monolayer = test: Caco-2 Permeability Assay; type: in vitro ADME, human
Outline: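 Caco-2 monolayers cultured 21 days (TEER >600 […]); test article at 10 μM in HBSS/HEPES pH 7.4 transport medium, dosed apical or basolateral, ±Pgp inhibitor. Incubated 90 min at 37 °C; both compartments quantified by LC-MS/MS. Papp (A→B, B→A), efflux ratio and % recovery calculated.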

Plasma Stability = type: in vitro ADME, human
Outline: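 Compounds incubated at 1 μM in fresh human plasma for 1 hour at 37° C, then protein-precipitated with acetonitrile/formic acid containing internal standard. Remaining parent measured by LC-MS/MS in triplicate, expressed as percent of control remaining.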

[2] = Stability in Simulated Gastric Fluid (SGF); type: in vitro ADME; parameters: key: % parent compound remaining relative to 0-minute sample
Outline: as §1

[3] = % @ 1 h (remaining) in simulated intestinal fluid
[4] = % @ 1 h (remaining) in human plasma
[5] = % @ 1 h (remaining) in simulated gastric fluid
[6] = simulated intestinal fluid, remaining at 1 h
[7] = simulated gastric fluid, remaining at 1 h

CC(C)OCCn1c(SCOC(=O)[C@H](N)Cc2ccccc2)nc(=O)c2c1ccn2COC(=O)[C@H](N)Cc1ccccc1.O=C(O)C(F)(F)F.O=C(O)C(F)(F)F [Example 312, bis(trifluoroacetic acid) {[5-({[(2R)-2-amino-3-phenylpropanoyl]oxy}methyl)-4-oxo-1-[2-(propan-2-yloxy)ethyl]-1H,4H,5H-pyrrolo[3,2-d]pyrimidin-2-yl]sulfanyl} methyl (2R)-2-amino-3-phenylpropanoate]
SIF ([1]; % remaining @ 1 h): 29% @ 1 h | Caco-2 Papp (Caco-2 monolayer; Caco-2): >0.994 nm/s | human Plasma stability (Plasma Stability; % remaining @ 1 h): 24% @ 1 h | SGF ([2]; % remaining @ 1 h): 99% @ 1 h

5-{({2-[2-(carbamoyloxy)ethoxy]ethoxy}car-bonyl)oxy]methyl}-1-[2-(propan-2-yloxy)ethyl]-2-sulfanylidene-1H,2H,3H,4H,5H-pyrrolo[3,2-d]pyrimidin-4-one [Example 402]
SIF ([1]; % remaining after 1 h in simulated intestinal fluid): 89% remaining | Caco-2 Papp (Caco-2 monolayer; Caco-2 monolayer): 246 nm/s | human Plasma stability (Plasma Stability; % remaining after 1 h in human plasma): 99% remaining | SGF ([2]; % remaining after 1 h in simulated gastric fluid): 99% remaining

CC(C)OCCn1c(SCOC(=O)N(C)Cc2ccccc2)nc(=O)c2c1ccn2COC(=O)N(C)Cc1ccccc1.O=C(O)C(F)(F)F [Example 174, trifluoroacetic acid {2-[{{[benzyl(methyl)carba-moyl]oxy}methyl)sulfanyl]-4-oxo-1-[2-(propan-2-yloxy)ethyl]-1H,4H,5H-pyrrolo[3,2-d]pyrimidin-5-yl}methyl N-benzyl-N-methylcarbamate]
SIF [1, 3]: 99% @ 1 h | Caco-2 Papp (Caco-2 monolayer; Caco-2 monolayer): 304 nm/s | human Plasma stability (Plasma Stability; [4]): 99% @ 1 h | SGF [2, 5]: 99% @ 1 h

5-{[2-({[(5-{[(2R)-2-{[(tert-butoxy)carbonyl]amino}-4-methylpentanoyl]oxy}penta-noyl)oxy]methyl}sulfanyl)-4-oxo-1-[2-(propan-2-yloxy)ethyl]-1H,4H,5H-pyrrolo[3,2-d]pyrimidin-5-yl]methoxy}-5-oxopentyl (2R)-2-{[(tert-butoxy)carbonyl]amino}-4-methylpentanoate [Example 348]
SIF [1, 6]: 20% remaining | Caco-2 Papp (Caco-2 monolayer; Caco-2 monolayer): <0.965 nm/s | human Plasma stability (Plasma Stability; human plasma, remaining at 1 h): 33% remaining | SGF [2, 7]: 88% remaining

CC(C)OCCn1c(SCOC(=O)N(C)CCOCCNC(=O)[C@H](N)C(C)C)nc(=O)c2[nH]ccc21.O=C(O)C(F)(F)F [Example 391, trifluoroacetic acid ({4-oxo-1-[2-(propan-2-yloxy)ethyl]-1H,4H,5H-pyrrolo[3,2-d]pyrimidin-2-yl}sulfanyl) methyl N-(2-{2-[(2R)-2-amino-3-methylbutanamido]ethoxy}ethyl)-N-methylcarbamate]
SIF [1, 6]: 70% remaining | Caco-2 Papp (Caco-2 monolayer; Caco-2 monolayer): 36.5 nm/s | human Plasma stability (Plasma Stability; human plasma, remaining at 1 h): 1% remaining | SGF [2, 7]: 96% remaining

CCCCN(C)C(=O)OCSc1nc(=O)c2c(ccn2COC(=O)N(C)CCCC)n1CCOC(C)C [Example 162, {2-[{{[butyl(methyl)carba-moyl]oxy}methyl)sulfanyl]-4-oxo-1-[2-(propan-2-yloxy)ethyl]-1H,4H,5H-pyrrolo[3,2-d]pyrimidin-5-yl}methyl N-butyl-N-methylcarbamate]
SIF [1, 3]: 96% @ 1 h | Caco-2 Papp (Caco-2 monolayer; Caco-2 monolayer): 287 nm/s | human Plasma stability (Plasma Stability; [4]): 96% @ 1 h | SGF [2, 5]: 98% @ 1 h

CC(C)OCCn1c(=S)[nH]c(=O)c2c1ccn2COC(=O)[C@@H]1CCN(C(=O)OC(C)(C)C)C1 [Example 129, 1-tert-butyl 3-{4-oxo-1-[2-(propan-2-yloxy)ethyl]-2-sulfanylidene-1H,2H,3H,4H,5H-pyrrolo[3,2-d]pyrimidin-5-yl} methyl (3R)-pyrrolidine-1,3-dicarboxylate]
SIF ([1]; % remaining at 1 h in simulated intestinal fluid): 21% remaining | Caco-2 Papp (Caco-2 monolayer; Caco-2 monolayer): 121 nm/s | human Plasma stability (Plasma Stability; % remaining at 1 h in human plasma): 1% remaining | SGF ([2]; % remaining at 1 h in simulated gastric fluid): 84% remaining
